Experimental data reported in PMC4409337, “Immucillins Impair Leishmania (L.) infantum chagasi and Leishmania (L.) amazonensis Multiplication In Vitro” (PLoS ONE, 2015).

Tests used:
[1] = Macrophage viability and cytotoxicity (Trypan Blue); details: female, BALB/c, mouse, peritoneal macrophages
Protocol: (§1) Alternatively, the immucillins were added at 0, 24 and 48 h and viability assessed after 72h. […] The amastigote growth was assessed 24 h after the last drug addition, on 200 cells in Giemsa stained coverslips and expressed as phagocytic index = percent of infected macrophages x average number of intracellular amastigotes. […] All experiments with mice were reviewed and approved by the Animal Care and Use Committee of the Instituto de Biofísica Carlos Chagas Fo.-UFRJ (CAUAP-CONCEA, Brazil, IMPPG-016) and were performed according to the guidelines of the National Institutes of Health, USA. We made all efforts in order to minimize animal suffering.

[2] = test system: intracellular amastigotes of L. (L.) infantum chagasi; assay: Replication of intracellular amastigotes in infected peritoneal macrophages (phagocytic index); format: cell-based, Leishmania (L.) infantum chagasi
Protocol: as §1, with “Alternatively, the immucillins were added at 0, 24 and 48 h and viability assessed after 72h.” left out

- EC50 ([2]; Leishmania infantum, Peritoneal macrophage, drugs (0.5–10 μM) added at 0 h, incubation 24 h, linear interpolation, read-out: EC50 (CI 95%)): 2.39 µM
SMILES: Nc1ncnc2c(C3N[C@H](CO)[C@@H](O)[C@H]3O)c[nH]c12 (some centres unmarked) [IA]
- CC50 at 48 h [1]: 900 µM
- reduction in the number of intracellular amastigotes ([2]; 10 μM added daily at 0, 24 and 48 h): 95%
- decrease of intracellular amastigote parasite load ([2]; low micromolar concentrations, single to daily protocol): 74–95%
- reduction in the number of intracellular amastigotes ([2]; single 10 μM dose at 0 h, compared to untreated controls): 74%
